The source of these data is PubChem BioAssay AID1963826 (Molecular Pharmacology Branch, DTP, NCI, 2024).

This test relates to 926638-142-R-J1-PDC complex spheroid viability. Kind of test: Anticancer human tumor 926638-142-R-J1-PDC patient-derived endometrial carcinoma cell line growth inhibition [POLQ]. As to conditions: for viability, T/C: stronger effect = lower value. The protocol:
Multicellular complex tumor spheroid response to Polymerase (POL) inhibitors (novobiocin, ART-558, RP6685) in combination with a variety of drugs and investigational agents in selected tumor cell lines
The POL inhibitors (novobiocin, ART-558, and RP6685) were evaluated both individually and in combination with standard of care and investigational anticancer small molecules within a complex spheroid model of solid tumors. . Complex spheroids include a stromal component modeled by human endothelial cells (HUVEC) and fibroblasts modeled by human mesenchymal stem cells (MSCs). The concentration ranges selected for each drug and investigational agent were based upon clinically achievable concentrations if the clinical Cmax of the agent was known.
Compounds. The drugs and investigational agents: novobiocin (NSC847541), ART-558 (NSC835418), RP-6685 (NSC848927), peposertib (NSC802822), ceralasertib (NSC780249), elimusertib (NSC800525), camonsertib (NSC841442), AZD-1390 (NSC803789), olaparib (NSC753686), talazoparib (NSC767125), rucaparib (NSC756644), sotorasib (NSC818433), MRTX-1133 (NSC836407), SN-38 (NSC673596), topotecan (NSC609699), epotoside (NSC141540), doxorubicin (NSC123127), gemcitabine (NSC613327), 5-fluorouracil (NSC19893), paclitaxel (NSC125973), vemurafenib (NSC761431), MSA-2 (NSC828583), SN-011 (NSC837082), adavosertib (NSC754352), prexasertib (NSC758257), carboplatin (NSC241240) and oxaliplatin (NSC266046), were obtained from the National Cancer Institute (NCI) Developmental Therapeutics Program Chemical Repository (21). The FDA-approved anticancer drug set is available from the Developmental Therapeutics Program at https://dtp.cancer.gov/organization/dscb/obtaining/. […] The stock solutions were prepared in dimethyl sulfoxide (DMSO, Sigma-Aldrich, St. Louis, MO, cat. D2650), except for the platinum compounds which were prepared in saline (Quality Biological, Gaithersburg, MD, cat. 114-055-101), at 800-fold the tested concentration and stored at -70 degrees C prior to their use. All drugs and investigational agents were tested over a range starting from a high concentration at or near the clinical Cmax and decreasing in half-log increments. If the clinical Cmax for an agent had not been determined, the highest concentration tested was 10 microM, except for SN-38, which was tested at a high concentration of 1 microM.
Cell Culture. All cells were maintained in an incubator at 37 degrees C and 5% CO2 with 95% humidity. The PDC lines were cultured according to standard operating procedures established by the NCI PDMR (https://pdmr.cancer.gov). Table 3 of the manuscript, lists the cell lines along with the number of the three cell types plated to form the mct-spheroids and media for tumor cell growth. After thawing, all PDC lines, except 997537-175-T-J1-PDC and 415267-285-R-J2-PDC, were cultured in Matrigel-coated flasks prepared with a working solution of 1X Ham's F-12 nutrient mix, without supplementation (Thermo Fisher Scientific, cat. 11765054), 100 U/mL penicillin-streptomycin (Thermo Fisher Scientific, cat. 15140122), and 2.5% Matrigel (Corning Inc., Corning, NY, cat. 354248) for the first three passages. The two PDC lines 997537-175-T-J1-PDC and 415267-285-R-J2-PDC were cultured on uncoated flasks. The 857933-349-R-J2-PDC line was cultured in 6C/Colon 1B media containing advanced DMEM/F-12 (Thermo Fisher Scientific, cat. 12634028), 10 mM HEPES (Thermo Fisher Scientific, cat. 15630080), 1X GlutaMAX supplement (Thermo Fisher Scientific, cat. 35050061), 0.1 mg/mL primocin (InvivoGen, San Diego, CA, cat. ant-pm-2), 10% defined fetal bovine serum, heat inactivated (HyClone Laboratories Inc., Logan, UT, cat. SH30070.03HI), 50% L-WRN conditioned media (ATCC, cat. CRL-3276), 1.25 mM N-Acetyl-L-cysteine (Sigma-Aldrich, cat. A9165), 10 mM nicotinamide (Sigma-Aldrich, cat. N0636), 1X B-27 supplement (Thermo Fisher Scientific, cat. 17504044), 1X N-2 supplement (Thermo Fisher Scientific, cat. […]

Where [1] appears, read: curve of first compound, second compound 0.0316 µM.
Where [2] appears, read: curve of first compound, second compound 0.1 µM.
The mark [3] stands for this setting: curve of first compound, second compound 0.316 µM.
Where [4] appears, read: curve of first compound, second compound 1 µM.
The mark [5] stands for this setting: curve of first compound, second compound 3.16 µM.
Setting [6] is: curve of first compound, second compound 10 µM.
Setting [7] is: second compound 0.0316 µM, first compound 0.0316 µM.
The mark [8] stands for this setting: second compound 0.0316 µM, first compound 0.1 µM.
Where [9] appears, read: second compound 0.0316 µM, first compound 0.316 µM.
Setting [10] is: second compound 0.0316 µM, first compound 1 µM.
Setting [11] is: second compound 0.0316 µM, first compound 3.16 µM.
The mark [12] stands for this setting: second compound 0.0316 µM, first compound 10 µM.
[13] abbreviates: second compound 0.1 µM, first compound 0.0316 µM.
The mark [14] stands for this setting: second compound 0.1 µM, first compound 0.1 µM.
Setting [15] is: second compound 0.1 µM, first compound 0.316 µM.
Where [16] appears, read: second compound 0.1 µM, first compound 1 µM.
[17] abbreviates: second compound 0.1 µM, first compound 3.16 µM.
Setting [18] is: second compound 0.1 µM, first compound 10 µM.
[19] abbreviates: second compound 0.316 µM, first compound 0.0316 µM.
Setting [20] is: second compound 0.316 µM, first compound 0.1 µM.
Where [21] appears, read: second compound 0.316 µM, first compound 0.316 µM.
The mark [22] stands for this setting: second compound 0.316 µM, first compound 1 µM.
Where [23] appears, read: second compound 0.316 µM, first compound 3.16 µM.
The mark [24] stands for this setting: second compound 0.316 µM, first compound 10 µM.
[25] abbreviates: second compound 1 µM, first compound 0.0316 µM.
The mark [26] stands for this setting: second compound 1 µM, first compound 0.1 µM.
Setting [27] is: second compound 1 µM, first compound 0.316 µM.
The mark [28] stands for this setting: second compound 1 µM, first compound 1 µM.
Where [29] appears, read: second compound 1 µM, first compound 3.16 µM.
[30] abbreviates: second compound 1 µM, first compound 10 µM.
The mark [31] stands for this setting: second compound 3.16 µM, first compound 0.0316 µM.
Setting [32] is: second compound 3.16 µM, first compound 0.1 µM.
Where [33] appears, read: second compound 3.16 µM, first compound 0.316 µM.
[34] abbreviates: second compound 3.16 µM, first compound 1 µM.
Setting [35] is: second compound 3.16 µM, first compound 3.16 µM.
The mark [36] stands for this setting: second compound 3.16 µM, first compound 10 µM.
Where [37] appears, read: second compound 10 µM, first compound 0.0316 µM.
Where [38] appears, read: second compound 10 µM, first compound 0.1 µM.
The mark [39] stands for this setting: second compound 10 µM, first compound 0.316 µM.
Where [40] appears, read: second compound 10 µM, first compound 1 µM.
The mark [41] stands for this setting: second compound 10 µM, first compound 3.16 µM.
The mark [42] stands for this setting: second compound 10 µM, first compound 10 µM.

Several values for one entry are separate records, joined by “and”; a condition that tells them apart may be missing. Equal entries are not always repeated.
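Note: spheroids exposed to drugs for one week before readout.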
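Throughout, for viability, T/C: percent viability relative to DMSO vehicle control wells set as 100%.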

Regarding `CCc1cc2c(N3CCc4c(cc(Cn5ccnc5)cc4-c4cn(C)nc4C(F)(F)F)C3=O)ccnc2c(OC)n1` + Nc1ccc(C#CCN(C(=O)Cc2ncc(C(F)(F)F)cc2C(F)(F)F)c2ccc(F)cc2)nn1, the half-inhibitory concentration (IC50) (commonly the midpoint of a concentration-inhibition curve) is, setting by setting: under setting [1], 1060 nM; under setting [2], 879 nM; under setting [3], 713 nM; under setting [4], 931 nM; under setting [5], 578 nM; under setting [6], 757 nM. The viability, T/C – broadly, the ratio of treated to control – reads like this: under setting [7], 88.5%; under setting [8], 73.4%; under setting [9], 59.6%; under setting [10], 54.3%; under setting [11], 38.7%; under setting [12], 26.6%. Further, the viability, T/C is 81.5% under setting [13]; 77.6% under setting [14]; 59.8% under setting [15]; 49.8% under setting [16]; 36.8% under setting [17]; 29.6% under setting [18]. Besides, the viability, T/C under setting [19] was 88.8%; the viability, T/C under setting [20] was 73.4%; the viability, T/C under setting [21] is 53.4%; the viability, T/C under setting [22] was 48.1%; the viability, T/C under setting [23] was 41.2%; the viability, T/C under setting [24] was 29.4%. Also, the viability, T/C under setting [25] was 83.7%; the viability, T/C under setting [26] was 67.3%; the viability, T/C under setting [27] is 62.4%; the viability, T/C under setting [28] is 45.3%; the viability, T/C under setting [29] is 44.8%; the viability, T/C under setting [30] is 33.3%. Further, the viability, T/C was 68.3% under setting [31]; 70.5% under setting [32]; 58% under setting [33]; 41.7% under setting [34]; 38.2% under setting [35]; 31.7% under setting [36]. Further, the viability, T/C was 86.4% under setting [37]; 67.2% under setting [38]; 59.8% under setting [39]; 48.5% under setting [40]; 37.3% under setting [41]; 32.4% under setting [42].
In the case of `COc1cccc(OCCCN)c1-c1cc(Nc2cnc(C#N)cn2)n[nH]1`, the viability, T/C runs as follows: (compound 0.00316 µM) 93.2% and 79.9% and 100%; (compound 0.01 µM) 77.4% and 82.9% and 82.8%; (compound 0.0316 µM) 60.4% and 55.2% and 58.4%; (compound 0.1 µM) 55.1% and 55.9% and 59.1%; (compound 0.316 µM) 52% and 40.5% and 39.7%; (compound 1 µM) 26.3% and 36.1% and 36.3%. Also, the IC50 (curve of compound) was 150 nM and 108 nM and 130 nM.
Regarding `CNCc1ccc(-c2[nH]c3cc(F)cc4c3c2CCNC4=O)cc1` + Cc1cccc(N(C)C(=O)C2C(O)CCN2c2nc(C)cc(C(F)(F)F)c2C#N)c1, the concentration for half-maximal inhibition (IC50) is more than 10000 nM under setting [1]; more than 10000 nM under setting [2]; more than 10000 nM under setting [3]; more than 10000 nM under setting [4]; more than 10000 nM under setting [5]; more than 10000 nM under setting [6]. The viability, T/C runs as follows: under setting [7], 69.2%; under setting [8], 112%; under setting [9], 100%; under setting [10], 93.8%; under setting [11], 89.9%; under setting [12], 82%. The viability, T/C under setting [13] is 103%; the viability, T/C under setting [14] is 97.9%; the viability, T/C under setting [15] was 85.5%; the viability, T/C under setting [16] is 80.1%; the viability, T/C under setting [17] was 75.6%; the viability, T/C under setting [18] is 74.7%. The viability, T/C under setting [19] was 104%; the viability, T/C under setting [20] is 92.7%; the viability, T/C under setting [21] was 84.5%; the viability, T/C under setting [22] was 89.7%; the viability, T/C under setting [23] was 100%; the viability, T/C under setting [24] is 81%. Moreover, the viability, T/C is, setting by setting: under setting [25], 91.3%; under setting [26], 89.6%; under setting [27], 89.7%; under setting [28], 89%; under setting [29], 81%; under setting [30], 79.1%. The viability, T/C by setting is: under setting [31], 97.8%; under setting [32], 92.8%; under setting [33], 85.1%; under setting [34], 87.9%; under setting [35], 98.5%; under setting [36], 69.7%. Moreover, the viability, T/C runs as follows: under setting [37], 88.8%; under setting [38], 87.7%; under setting [39], 96.2%; under setting [40], 87.2%; under setting [41], 75.4%; under setting [42], 71.7%.
Take `CC(C)n1c(=O)n(C)c2cnc3cc(F)c(-c4ccc(OCCCN5CCCCC5)nc4)cc3c21`: the viability, T/C runs as follows: (compound 0.0316 µM) 98.1% and 96.9% and 85.4%; (compound 0.1 µM) 99.6% and 92.2% and 101%; (compound 0.316 µM) 78.3% and 94.7% and 126%; (compound 1 µM) 101% and 93.6% and 113%; (compound 3.16 µM) 89.7% and 80.9% and 94.1%; (compound 10 µM) 51.1% and 73.2% and 92.8%. Further, where the note is “curve of compound”, the IC50 was more than 10000 nM.
For `CNCc1ccc(-c2[nH]c3cc(F)cc4c3c2CCNC4=O)cc1`, the viability, T/C (compound 0.0316 µM) is 93.7% and 109% and 101%; the viability, T/C (compound 0.1 µM) is 89.6% and 97.2% and 79.2%; the viability, T/C (compound 0.316 µM) is 92.8% (2×) and 87.7%; the viability, T/C (compound 1 µM) is 77.7% and 97.3% and 82.6%; the viability, T/C (compound 3.16 µM) was 86.7% and 87.1% and 95.7%; the viability, T/C (compound 10 µM) was 78% and 80.2% and 84.1%. In addition, the IC50 (curve of compound) was more than 10000 nM.
